From the supplement of paper PMC4862054

Columns and labels:
Details in all cases: 72 h
CAL-51 [1] = system: CAL-51
Method in brief: (§1)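 In this assay, breast cancer cell lines spent 72 h with compound at 5 concentrations in 10-fold steps over a compound-specific 10,000-fold range. The first readout was cell death by CellTox Green fluorescence, and the second was viability by CellTiter-Glo luminescence, each normalised per plate to 0.1 % DMSO and a positive kill control. EC50 came from the dose-response curves, censored at the top concentration.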

CAL-51 [2] = system: CAL-51; remark: listed apart in the source
Method in brief: (§2)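 Each 384-well plate was pre-loaded with compound dissolved in 5 µl medium, received breast cancer cells in 20 µl suspension, and was incubated 72 h. A 2.5 µl addition of CellTiter-Blue for 2 h at 37 °C was followed by a fluorescence read at 560/590 nm. Data were normalised per plate to vehicle and a positive kill control and checked by Z'-factor. EC50 was fitted from the percent-inhibition dose-response curve, censored at the highest concentration, excluding rows with a drug sensitivity score of zero.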

CAL-85-1 [3] = system: CAL-85-1
Method in brief: as §2

DU-4475 = system: DU-4475
Method in brief: as §2

HDQ-P1 [4] = system: HDQ-P1
Method in brief: as §2

BT-474 [5] = system: BT-474
Method in brief: as §2

BT-549 [6] = system: BT-549
Method in brief: as §2

HCC1143 [7] = system: HCC1143
Method in brief: as §2

Hs578T [8] = system: Hs578T
Method in brief: as §2

MDA-MB-436 [9] = system: MDA-MB-436
Method in brief: as §2

MDA-MB-468 [10] = system: MDA-MB-468
Method in brief: as §2

MFM-223 = system: MFM-223
Method in brief: as §2

SK-BR-3 [11] = system: SK-BR-3
Method in brief: as §2

Hs578T [12] = system: Hs578T; remark: listed apart in the source
Method in brief: as §1

SK-BR-3 [13] = system: SK-BR-3; remark: listed apart in the source
Method in brief: as §1

BT-474 [14] = system: BT-474; remark: listed apart in the source
Method in brief: as §1

BT-549 [15] = system: BT-549; remark: listed apart in the source
Method in brief: as §1

CAL-120 = system: CAL-120
Method in brief: as §1

CAL-85-1 [16] = system: CAL-85-1; remark: listed apart in the source
Method in brief: as §1

HCC1143 [17] = system: HCC1143; remark: listed apart in the source
Method in brief: as §1

HCC1599 [18] = system: HCC1599
Method in brief: as §1

HCC1937 = system: HCC1937
Method in brief: as §1

HDQ-P1 [19] = system: HDQ-P1; remark: listed apart in the source
Method in brief: as §1

MCF-10A = system: MCF-10A
Method in brief: as §1

MDA-MB-231 [20] = system: MDA-MB-231
Method in brief: as §1

MDA-MB-436 [21] = system: MDA-MB-436; remark: listed apart in the source
Method in brief: as §1

MDA-MB-453 = system: MDA-MB-453
Method in brief: as §1

MDA-MB-468 [22] = system: MDA-MB-468; remark: listed apart in the source
Method in brief: as §1

CAL-51 [23] = system: CAL-51; remark: listed apart in the source
Method: (§3)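 Drug sensitivity and resistance testing (DSRT) of breast cancer cell lines in 384-well plates, 5 concentrations in 10-fold dilutions over a compound-specific 10,000-fold range. After 72 h, cytotoxicity was read by CellTox Green fluorescence and viability by CellTiter-Glo luminescence (multiplexed), normalised to DMSO and benzethonium chloride controls. EC50 is the inflection point of the fitted dose-response curve (bottom asymptote free, so it can be relative for partial curves) and is censored at the highest tested concentration. Rows with DSS 0 (no meaningful response) were excluded.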

CAL-85-1 [24] = system: CAL-85-1; remark: listed apart in the source
Method: as §3

Hs578T [25] = system: Hs578T; remark: listed apart in the source
Method: as §3

MDA-MB-231 [26] = system: MDA-MB-231; remark: listed apart in the source
Method: as §3

MDA-MB-468 [27] = system: MDA-MB-468; remark: listed apart in the source
Method: as §3

HCC1599 [28] = system: HCC1599; remark: listed apart in the source
Method in brief: as §2

Structure (SMILES) | EC50, CellTiter-Glo (CAL-51 [1]) [µM] | EC50, CellTiter-Blue viability (CAL-51 [2]) [µM] | EC50, CellTiter-Blue viability (CAL-85-1 [3]) [µM] | EC50, CellTiter-Blue viability (DU-4475) [µM] | EC50, CellTiter-Blue viability (HDQ-P1 [4]) [µM] | EC50, CellTiter-Blue viability (BT-549 [6]) [µM] | EC50, CellTiter-Blue viability (HCC1143 [7]) [µM] | EC50, CellTiter-Blue viability (Hs578T [8]) [µM] | EC50, CellTiter-Blue viability (MDA-MB-436 [9]) [µM] | EC50, CellTiter-Blue viability (MDA-MB-468 [10]) [µM] | EC50, CellTiter-Blue viability (SK-BR-3 [11]) [µM] | EC50, CellTiter-Glo (Hs578T [12]) [µM] | EC50, CellTiter-Glo (SK-BR-3 [13]) [µM] | other results
Cc1ccc(C(=O)N(CCCN)[C@@H](c2oc3cc(Cl)ccc3c(=O)c2Cc2ccccc2)C(C)C)cc1 | 0.00024 | 0.00653 | 0.00495 | 0.00862 | 0.00234 | 0.00183 | 0.00209 | 0.00405 | 0.00255 | 0.00188 | 0.00074 |  |  | EC50, CellTiter-Blue viability (BT-474 [5]): 0.00438 µM; EC50, CellTiter-Blue viability (MFM-223): 0.00375 µM
O=C(O)c1ccc(-c2c[nH]c3ncc(-c4ccccc4)cc23)cc1C1CCCC1 |  |  |  |  |  |  |  |  |  |  |  | > 10 | > 10 | 
NC(=O)Nc1cc(-c2cccc(F)c2)sc1C(=O)N[C@H]1CCCNC1 [AZD7762] | 0.707 |  |  |  |  |  |  |  |  |  |  | 0.467 | 0.458 | EC50, CellTiter-Glo (BT-474 [14]): 0.233 µM; EC50, CellTiter-Glo (BT-549 [15]): 0.131 µM; EC50, CellTiter-Glo (CAL-120): 0.255 µM; EC50, CellTiter-Glo (CAL-85-1 [16]): 0.112 µM; EC50, CellTiter-Glo (HCC1143 [17]): 0.361 µM; EC50, CellTiter-Glo (HCC1599 [18]): 0.236 µM; EC50, CellTiter-Glo (HCC1937): 0.593 µM; EC50, CellTiter-Glo (HDQ-P1 [19]): 0.57 µM; EC50, CellTiter-Glo (MCF-10A): 0.499 µM; EC50, CellTiter-Glo (MDA-MB-231 [20]): 0.193 µM; EC50, CellTiter-Glo (MDA-MB-436 [21]): 0.237 µM; EC50, CellTiter-Glo (MDA-MB-453): 0.672 µM; EC50, CellTiter-Glo (MDA-MB-468 [22]): 0.596 µM; EC50, CellTox Green (CAL-51 [23]): 0.5 µM; EC50, CellTox Green (CAL-85-1 [24]): 0.0758 µM; EC50, CellTox Green (Hs578T [25]): 0.00265 µM; EC50, CellTox Green (MDA-MB-231 [26]): 0.745 µM; EC50, CellTox Green (MDA-MB-468 [27]): 0.0265 µM
NC(=O)Nc1cc(-c2cccc(F)c2)sc1C(=O)N[C@H]1CCCNC1 [AZD 7762] |  | 0.564 | 0.215 | 0.619 | 0.508 | 0.67 | 0.705 | 0.211 | 0.333 | 0.61 | 0.364 |  |  | EC50, CellTiter-Blue viability (HCC1599 [28]): 0.0877 µM
